Reference: US4812456A, “1-(N-(2-alkylthio-10H-phenothiazin-10-yl)alkyl)-4-benzoylpiperidines and pharmaceutical use” (Hoechst-Roussel Pharmaceuticals Inc., priority 1987, dated 1989)

Assays:
mice [1] = assay: climbing mice assay (apomorphine climbing, antipsychotic activity); format: in vivo, CK-1 male mice; settings: Mus musculus, ip, compound 30 minutes prior to apomorphine 1.5 mg/kg subcutaneously, climbing scores at 10, 20 and 30 minutes, linear regression, read-out: Anti-Psychotic Activity (ED50)
Text: The subject CK-1 male mice (23-27 grams) are group-housed under standard laboratory conditions. The mice are individually placed in wire mesh stick cages (4"×4" by 10") and are allowed one hour for adaptation and exploration of the new environment.
Mice consistently climbing before the injection of apomorphine are discarded.
With full-developed apomorphine climbing, the animals are hanging onto the cage walls, rather motionless, over longer periods of time. By contrast, climbs due to mere motor stimulation usually last only a few seconds.

mice [2] = assay: phenyl-p-quinone writhing assay in mice (analgesic activity, modified); format: in vivo, male mice (Charles River, CD-1); settings: Mus musculus, sc, tested at peak time, estimated dose at which 50% inhibition of writhing is produced, computer linear regression
Protocol: The procedure employed to determine analgesic utility is a modification of the phenyl-p-quinone writhing assay in mice, a standard assay for analgesia (Proc. Soc. Exptl. Bio. Med., 95 729 (1957)]. In the modified procedure phenyl-p-benzoquinone (Eastman, 12.5 mg) is dissolved in 5 ml of 95% ethanol and the solution is diluted to a total volume of 100 ml with distilled water. The solution is administered to the subject mice […] at a dose of 10 ml per kg of body weight. A characteristic "writh", an inward rotation of one or more feet with twisting and turning of the trunk, drawing in of the abdominal wall, lordosis and arching of the back, is produced.
A total of 28 male mice (Charles River, CD-1), weighing 18 to 30 grams, are employed for a time response. The subject animals receive food and water ad libitum. Test compounds are dissolved in distilled water, or suspended in distilled water containing one drop of a suitable surfactant, such as Tween-80.
Four groups of five animals (20 animals) are given the test compound subcutaneously at 15, 30, 45 and 60 minutes prior to administration of the phenyl-p-quinone. Four control groups of 2 animals (8 animals) receive an equal volume of the vehicle. […] The number of writhes for each animal is recorded. […]

SMILES | ED50 (mice [1]) [mg/kg] | ED50 (mice [2]) [mg/kg]
CSc1ccc2c(c1)N(CCCN1CCC(C(=O)c3ccc(F)cc3)CC1)c1ccccc1S2.O=C(O)/C=C/C(=O)O [4-(4-Fluorobenzoyl)-1-[3-(2-methylthio-10H-phenothiazin-10-yl)propyl]piperidine fumarate] | 1.4 | 6.1
CC(C)=CCN1CCC2(C)c3cc(O)ccc3CC1C2C (stereo not shown) [Pentazocine] |  | 1.3
CSc1ccc2c(c1)N(CCC1CCCCN1C)c1ccccc1S2 (stereo not shown) [Thioridazine] | 4.1 | 
